Each block holds one compound with its values, some of them ahead of it.
Experiments:
[1] = system: conscious, male hypertensive Dahl salt-sensitive rats; assay: Acute effects on MAP and HR by telemetry in Dahl salt-sensitive rats; format: in vivo, rat; conditions: Dahl-S rats
Description: The acute effects of ACT-132577 on blood pressure, in particular on mean arterial blood pressure (hereafter “MAP”), and heart rate (hereafter “HR”) were evaluated by means of telemetry in conscious, male hypertensive Dahl salt-sensitive rats (hereafter “Dahl-S rats”—see details about this model in Rapp, Hypertension (1982), 4, 753-763). Elevated blood pressure is induced in Dahl-S rats by providing 1% sodium chloride in drinking water. Groups of 6-7 Dahl-S rats were used for the vehicle (7.5% gelatin aqeuous solution) and each dose of ACT-132577 tested (0.3, 1, 3, 10, 30, 100, and 300 mg/kg). Effects of ACT-132577 on HR and MAP were calculated for individual animals relative to the 24 h period before administering. The results obtained regarding MAP (maximal MAP decrease observed over 6 consecutive hours) are summarised in FIG. 9 (data are presented as mean±standard error of the mean). In summary, a dose of 10 mg/kg ACT-132577 decreased MAP by 19±4 mm Hg in Dahl-S rats. In contrast to MAP, HR was not affected.

[2] = system: conscious, male hypertensive deoxycorticosterone acetate salt rats; assay: Acute effects on MAP and HR by telemetry in DOCA-salt rats; format: in vivo, rat
Description: The acute effects of ACT-132577 on blood pressure, in particular on mean arterial blood pressure (hereafter “MAP”), and heart rate (hereafter “HR”) were evaluated by means of telemetry in conscious, male hypertensive deoxycorticosterone acetate salt rats (hereafter “DOCA-salt rats”—see details about this model in Gavras et al., Circ. Res. (1975), 36, 300-309). In the DOCA-salt rats, hypertension is induced by the combination of unilateral nephrectomy, implantation of pellets of the mineralocorticoid analog DOCA, and provision of 1% sodium chloride in drinking water. Groups of 6-11 DOCA-salt rats were used for the vehicle (7.5% gelatin aquous solution) and each dose of ACT-132577 tested (0.3, 1, 3, 10, 30, 100, and 300 mg/kg). Effects of ACT-132577 on HR and MAP were calculated for individual animals relative to the 24 h period before administering. The results obtained regarding MAP (maximal MAP decrease observed over 6 consecutive hours) are summarised in FIG. 10 (data are presented as mean±standard error of the mean). In summary, a dose of 10 mg/kg ACT-132577 decreased MAP by 29±6 mm Hg in DOCA-salt rats. In contrast to MAP, HR was not affected.

[3] = system: conscious, male spontaneously hypertensive rats; assay: Acute effects on MAP and HR by telemetry in spontaneously hypertensive rats; format: in vivo, rat; conditions: SHRs
Description: The acute effects of ACT-132577 on blood pressure, in particular on mean arterial blood pressure (hereafter “MAP”), and heart rate (hereafter “HR”) were evaluated by means of telemetry in conscious, male spontaneously hypertensive rats (hereafter “SHRs”—see details about this model in Atanur et al., Genome Res. (2010), 20, 791-803). Groups of 4-6 SHRs were used for the vehicle (7.5% gelatin aquous solution) and each dose of ACT-132577 tested (1, 3, 10, 30, 100, and 300 mg/kg). Effects of ACT-132577 on HR and MAP were calculated for individual animals relative to the 24 h period before administering. The results obtained regarding MAP (maximal MAP decrease observed over 6 consecutive hours) are summarised in FIG. 11 (data are presented as mean±standard error of the mean). In summary, a dose of 100 mg/kg ACT-132577 decreased MAP by 18±4 mm Hg in SHRs. In contrast to MAP, HR was not affected.

[4] = system: conscious, male hypertensive deoxycorticosterone acetate salt rats; assay: Chronic effects of repeated oral administration in DOCA-salt rats; format: in vivo, rat
Description: The chronic effects of repeated administrations of doses of 1, 10 and 100 mg/kg/day of ACT-132577, in particular mean arterial blood pressure (hereafter “MAP”), and heart rate (hereafter “HR”), were evaluated in conscious, male hypertensive deoxycorticosterone acetate salt rats (hereafter “DOCA-salt rats”-see details about this model in Gavras et al., Circ. Res. (1975), 36, 300-309). In the DOCA-salt rats, hypertension is induced by the combination of unilateral nephrectomy, implantation of pellets of the mineralocorticoid analog DOCA, and provision of 1% sodium chloride in drinking water. The results of the DOCA-salt rats treated with ACT-132577 were compared to those obtained for Wistar rats or for DOCA-salt rats that received only the vehicle (4% gelatin aquous solution).

male Wistar rats = assay: Effect on fluid retention (haematocrit) in Wistar rats; format: in vivo, rat; conditions: single oral dose 1-30 mg/kg, 24 hours after administration
Description: A decrease in haematocrit (Hct) or haemoglobin occurs secondary to an increase in plasma volume and can be used as a marker of fluid retention. A single oral dose of aprocitentan (1-30 mg/kg) or vehicle (gelatin) was administered by gavage to male Wistar rats. Twenty-four hours after administration, sublingual blood was sampled under isoflurane-induced anesthesia. Haematocrit was measured using a hematology analyser.

[5] = system: conscious, male spontaneously hypertensive rats; assay: Acute effects on top of Exforge HCT in SHRs (telemetry); format: in vivo, rat; conditions: for Blood pressure when added on top of Exforge HCT: aprocitentan 100 mg/kg or spironolactone 300 mg/kg oral, Exforge HCT 1.6/0.1/0.25 mg/kg
Description: The acute effects of Exforge HCT® (i.e. a fixed dose combination of valsartan/amlodipine/hydrochlorothiazide; dosage adapted for 1.6 mg/kg/0.1 mg/kg/0.25 mg/kg for valsartan/amlodipine/hydrochlorothiazide, respectively) on blood pressure, in particular on mean arterial blood pressure (hereafter “MAP”), and heart rate (hereafter “HR”) in combination with ACT-132577 or spironolactone were also evaluated by means of telemetry in conscious, male spontaneously hypertensive rats (hereafter “SHRs”-see details about this model in Atanur et al., Genome Res. (2010), 20, 791-803).
9 SHRs per treatment group were used for this test. To match the maximal effect on blood pressure of co-administered drug in this model, aprocitentan 100 mg/kg was administrated orally on the 3rd day following 3-day oral administration of Exforge HCT® mg/kg and spironolactone 300 mg/kg was co-administered orally with Exforge HCT® on the 1st day followed by 2 days of Exforge HCT® administration. The results obtained regarding MAP are summarised in FIGS. 19 and 20 wherein each data point is presented as a 6-hour mean.

[6] = system: conscious, male hypertensive deoxycorticosterone acetate salt rats; assay: Acute effects on top of Exforge HCT in DOCA-salt rats (telemetry); format: in vivo, rat; conditions: for Blood pressure when added on top of Exforge HCT: aprocitentan 10 mg/kg or spironolactone 300 mg/kg oral, Exforge HCT 3.2/0.2/0.5 mg/kg
Source text: Res. (1975), 36, 300-309). In the DOCA-salt rats, hypertension is induced by the combination of unilateral nephrectomy, implantation of pellets of the mineralocorticoid analog DOCA, and provision of 1% sodium chloride in drinking water. 7-9 DOCA-salt rats per treatment group were used for this test. The results obtained regarding MAP are summarised in FIGS. 21 and 22 wherein each data point is presented as a 6-hour mean.

[7] = in comparison to corresponding alkylated derivatives; cited from earlier work
[8] = Storage at room temperature (crystal form stability, XRPD and HPLC control); format: physicochemical; conditions: 20-25° C.
Description: All XRPD patterns for the solid forms described herein have been obtained as described hereafter. X-ray powder diffraction patterns were collected on a Bruker D8 Advance X-ray diffractometer equipped with a Lynxeye detector operated with CuKα-radiation in reflection mode (coupled two Theta/Theta). Typically, the X-ray tube was run at of 40 kV/40 mA. A step size of 0.02° (2θ) and a step time of 76.8 sec over a scanning range of 3-50° in 2θ were applied. The divergence slit was set to fixed 0.3. Powders were slightly pressed into a silicon single crystal sample holder with depth of 0.5 mm and samples were rotated in their own plane during the measurement. Diffraction data are reported using combined Cu Kα1 and Kα2 radiation, without Kα2 stripping. The accuracy of the 2θ values as provided herein is in the range of +/−0.1-0.2° as it is generally the case for conventionally recorded X-ray powder diffraction patterns. A sample of Form A crystals of the COMPOUND (as obtained according to Example 1 above) has been stored at a temperature of 20-25° C. at 92% relative humidity for 2 months. […] The same result was obtained after storage for 8 weeks under the above conditions. […] A sample of Form B crystals of a dichloromethane solvate of the COMPOUND (as obtained according to Example 2 above) has been stored in a closed vial ([…] of Form B crystals being placed in a closed 4 mL vial) at a temperature of 20-25° C. for about 3 weeks. […] A sample of Form K crystals of a dimethylsulfoxide solvate of the COMPOUND (as obtained according to Example 7 above) has been stored in a closed vial ([…] of Form K crystals being placed in a closed 4 mL vial) at a temperature of 20-25° C. for about 3 weeks.

[9] = Hygroscopicity by gravimetric vapor sorption (GVS); format: physicochemical
Source text: Mass increase of a sample as obtained according to Example 1 in the first cycle from 40% r.h. to 80% r.h. corresponds to 0.4%. At 95% r.h. 2.2% moisture were taken up in a reversible way without hysteresis upon drying.

patients with rHT = conditions: 14 week phase 3 trial, cited from earlier work
[10] = 10 mg/kg, mean±standard error of the mean
[11] = DOCA-salt rats, 1, 10 and 100 mg/kg/day oral for 4 weeks
[12] = DOCA-salt rats, chronic oral administration

Structure (SMILES): NS(=O)(=O)Nc1ncnc(OCCOc2ncc(Br)cn2)c1-c1ccc(Br)cc1 [ACT-132577, {5-(4-bromo-phenyl)-6-[2-(5-bromo-pyrimidin-2-yloxy)-ethoxy]-pyrimidin-4-yl}-sulfamide]
- MAP decrease (maximal decrease over 6 consecutive hours) [1, 10]: 19±4 mm Hg
- Heart rate (HR) ([1]; doses 0.3-300 mg/kg): not affected
- MAP decrease (maximal decrease over 6 consecutive hours) [2, 10]: 29±6 mm Hg
- Heart rate (HR) ([2]; doses 0.3-300 mg/kg): not affected
- MAP decrease (maximal decrease over 6 consecutive hours) ([3]; 100 mg/kg, mean±standard error of the mean): 18±4 mm Hg
- Heart rate (HR) ([3]; doses 1-300 mg/kg): not affected
- DOCA-salt-induced increase in MAP [4, 11]: dose-dependently attenuated the DOCA-salt-induced increase in MAP
- Heart rate (HR) [4, 11]: without changing HR
- Left ventricular hypertrophy [4, 12]: tended to decrease left ventricular hypertrophy
- Plasma concentrations of N-terminal pro-brain natriuretic peptide (NTproBNP) [4, 12]: dose-dependent decrease
- Renal blood flow [4, 12]: dose-dependently increased renal blood flow
- Renal vascular resistance [4, 12]: decreased renal vascular resistance
- Haematocrit (Hct), marker of fluid retention (male Wistar rats): did not impact on haematocrit
- Blood pressure when added on top of Exforge HCT [5]: further reduced blood pressure
- Blood pressure reduction compared with spironolactone, on top of Exforge HCT ([5]; aprocitentan 100 mg/kg vs spironolactone 300 mg/kg): greater blood pressure reduction than spironolactone
- Blood pressure when added on top of Exforge HCT [6]: further reduced blood pressure
- Blood pressure reduction compared with spironolactone, on top of Exforge HCT ([6]; aprocitentan 10 mg/kg vs spironolactone 300 mg/kg): greater blood pressure reduction than spironolactone
- Clearance in vivo [7]: much shorter clearance
- Half-life in vivo [7]: much longer half-life

Structure (SMILES): CC(=O)S[C@@H]1CC2=CC(=O)CC[C@]2(C)[C@H]2CC[C@@]3(C)[C@@H](CC[C@@]34CCC(=O)O4)[C@H]12 [spironolactone, reference compound]
- Blood pressure when added on top of Exforge HCT [5]: further reduced blood pressure
- Blood pressure when added on top of Exforge HCT [6]: further reduced blood pressure

Structure (SMILES): COc1cc(OC)nc(O[C@H](C(=O)O)C(OC)(c2ccccc2)c2ccccc2)n1 [darusentan]
- Fluid retention/edema (most frequent adverse event) (patients with rHT; 12% in each of the other groups): 28%
- Primary endpoint systolic blood pressure (patients with rHT): failed to show significant treatment effect
- Reduction of ambulatory blood pressure (patients with rHT): demonstrated efficacy

Further lines, results first:

- Crystal form by X-ray powder diffraction after storage ([8]; 92% relative humidity, 2 months): still consisting only in Form A crystals
- Crystal form by X-ray powder diffraction after storage ([8]; 92% relative humidity, 8 weeks): same result
- HPLC control after storage (change in peak area %, degradation) ([8]; 92% relative humidity, 8 weeks): no significant degradation
- Moisture taken up ([9]; at 95% r.h., reversible, without hysteresis upon drying): 2.2%
- Mass increase ([9]; first cycle from 40% r.h. to 80% r.h.): 0.4%
- Hygroscopicity (GVS) ([9]; sample obtained according to Example 1): slightly hygroscopic
Structure (SMILES): NS(=O)(=O)Nc1ncnc(OCCOc2ncc(Br)cn2)c1-c1ccc(Br)cc1 [Form A, {5-(4-bromo-phenyl)-6-[2-(5-bromo-pyrimidin-2-yloxy)-ethoxy]-pyrimidin-4-yl}-sulfamide]

- Crystal form by X-ray powder diffraction after storage in a closed vial ([8]; closed 4 mL vial, about 3 weeks): transformed into Form A crystals
Structure (SMILES): NS(=O)(=O)Nc1ncnc(OCCOc2ncc(Br)cn2)c1-c1ccc(Br)cc1 [Form B, {5-(4-bromo-phenyl)-6-[2-(5-bromo-pyrimidin-2-yloxy)-ethoxy]-pyrimidin-4-yl}-sulfamide]

From US11787782B2, “Combinations of a 4-pyrimidinesulfamide derivative with active ingredients for the treatment of endothelin related diseases” (IDORSIA PHARMACEUTICALS LTD, priority 2017, dated 2023)
